From PubChem BioAssay (NCI)
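Results reflect a 48-hour exposure of cells in 96-well plates to compound at five concentrations. TGI: total growth inhibition.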

Key:
Assay in all cases: DTP human tumour cell line panel, 48 h
[1] = tested on: SK-MEL-5 melanoma
[2] = tested on: HT29 colon
[3] = tested on: SF-268 CNS
[4] = tested on: PC-3 prostate
[5] = tested on: HCT-116 colon
[6] = tested on: DU-145 prostate
[7] = tested on: HOP-62 NSCLC
[8] = tested on: ACHN renal
[9] = tested on: OVCAR-3 ovarian
[10] = tested on: IGROV1 ovarian
[11] = tested on: A549 NSCLC
[12] = tested on: MDA-N
[13] = tested on: NCI-H460 lung
[14] = tested on: MDA-MB-231 breast
[15] = tested on: MCF7 breast
[16] = tested on: A498 renal
[17] = tested on: UACC-62 melanoma
[18] = tested on: EKVX NSCLC
[19] = tested on: HCT-15 colon
[20] = tested on: T-47D breast
[21] = tested on: NCI/ADR-RES ovarian
[22] = tested on: CCRF-CEM leukemia
[23] = tested on: SW-620 colon
[24] = tested on: UO-31 renal
[25] = tested on: SNB-19 CNS
[26] = tested on: U251 CNS
[27] = tested on: M14 melanoma
[28] = tested on: NCI-H522 lung
[29] = tested on: SK-MEL-28 melanoma
[30] = tested on: SF-295 CNS
[31] = tested on: LOX IMVI melanoma
[32] = tested on: SK-OV-3 ovarian
[33] = tested on: COLO 205 colon
[34] = tested on: MDA-MB-435
[35] = tested on: K-562 leukemia
[36] = tested on: OVCAR-5 ovarian
[37] = tested on: UACC-257 melanoma
[38] = tested on: MALME-3M melanoma
[39] = tested on: CAKI-1 renal
[40] = tested on: TK-10 renal
[41] = tested on: RPMI-8226 leukemia
[42] = tested on: NCI-H23 lung
[43] = tested on: SNB-75 CNS
[44] = tested on: SF-539 CNS
[45] = tested on: SN12C renal
[46] = tested on: SR leukemia
[47] = tested on: RXF 393 renal
[48] = tested on: HCC-2998 colon
[49] = tested on: KM12 colon
[50] = tested on: HS 578T breast
[51] = tested on: 786-0 renal
[52] = tested on: NCI-H226 lung
[53] = tested on: MOLT-4 leukemia
[54] = tested on: HL-60(TB) leukemia
[55] = tested on: HOP-92 NSCLC
[56] = tested on: OVCAR-8 ovarian
[57] = tested on: SK-MEL-2 melanoma
[58] = tested on: OVCAR-4 ovarian

COc1ccc(-c2oc3ccccc3c(=O)c2O)cc1OC
TGI [1]: > 100 µM | TGI [2]: > 100 µM | TGI [3]: 53 µM | TGI [4]: > 100 µM | TGI [5]: > 100 µM | TGI [6]: > 100 µM | TGI [7]: 47.4 µM | TGI [8]: > 100 µM | TGI [9]: > 100 µM | TGI [10]: > 100 µM | TGI [11]: > 100 µM | TGI [12]: > 100 µM | TGI [13]: > 100 µM | TGI [14]: > 100 µM | TGI [15]: > 100 µM | TGI [16]: 71.5 µM | TGI [17]: > 100 µM | TGI [18]: > 100 µM | TGI [19]: > 100 µM | TGI [20]: > 100 µM | TGI [21]: > 100 µM | TGI [22]: > 100 µM | TGI [23]: > 100 µM | TGI [24]: > 100 µM | TGI [25]: > 100 µM | TGI [26]: 23.4 µM | TGI [27]: > 100 µM | TGI [28]: > 100 µM | TGI [29]: > 100 µM | TGI [30]: 35.1 µM | TGI [31]: > 100 µM | TGI [32]: > 100 µM | TGI [33]: > 100 µM | TGI [34]: > 100 µM | TGI [35]: > 100 µM | TGI [36]: > 100 µM | TGI [37]: > 100 µM | TGI [38]: > 100 µM | TGI [39]: > 100 µM | TGI [40]: 76.8 µM

CCOC(=O)/C=C/C(=O)O/C=C/[N+](=O)[O-]
TGI [1]: > 100 µM | TGI [2]: > 100 µM | TGI [3]: > 100 µM | TGI [5]: > 100 µM | TGI [6]: > 100 µM | TGI [7]: > 100 µM | TGI [41]: > 100 µM | TGI [42]: > 100 µM | TGI [8]: > 100 µM | TGI [9]: > 100 µM | TGI [10]: > 100 µM | TGI [43]: > 100 µM | TGI [12]: > 100 µM | TGI [44]: > 100 µM | TGI [13]: > 100 µM | TGI [14]: > 100 µM | TGI [15]: > 100 µM | TGI [16]: > 100 µM | TGI [17]: > 100 µM | TGI [18]: > 100 µM | TGI [45]: > 100 µM | TGI [19]: > 100 µM | TGI [20]: > 100 µM | TGI [46]: > 100 µM | TGI [21]: > 100 µM | TGI [22]: > 100 µM | TGI [47]: > 100 µM | TGI [23]: > 100 µM | TGI [24]: > 100 µM | TGI [48]: > 100 µM | TGI [26]: > 100 µM | TGI [27]: > 100 µM | TGI [49]: > 100 µM | TGI [50]: > 100 µM | TGI [51]: > 100 µM | TGI [28]: > 100 µM | TGI [30]: > 100 µM | TGI [31]: > 100 µM | TGI [32]: > 100 µM | TGI [52]: > 100 µM | TGI [33]: > 100 µM | TGI [34]: > 100 µM | TGI [53]: > 100 µM | TGI [36]: > 100 µM | TGI [54]: > 100 µM | TGI [37]: > 100 µM | TGI [55]: > 100 µM | TGI [56]: > 100 µM | TGI [39]: 78.1 µM | TGI [40]: > 100 µM

COc1ccc(-c2coc3cc(O)ccc3c2=O)cc1
TGI [1]: > 100 µM | TGI [2]: > 100 µM | TGI [3]: > 100 µM | TGI [4]: > 100 µM | TGI [5]: > 100 µM | TGI [6]: > 100 µM | TGI [7]: > 100 µM | TGI [42]: > 100 µM | TGI [8]: > 100 µM | TGI [9]: > 100 µM | TGI [10]: > 100 µM | TGI [43]: > 100 µM | TGI [11]: > 100 µM | TGI [12]: > 100 µM | TGI [44]: > 100 µM | TGI [13]: > 100 µM | TGI [14]: > 100 µM | TGI [15]: > 100 µM | TGI [16]: > 100 µM | TGI [17]: > 100 µM | TGI [45]: > 100 µM | TGI [19]: > 100 µM | TGI [20]: > 100 µM | TGI [46]: > 100 µM | TGI [21]: > 100 µM | TGI [22]: > 100 µM | TGI [23]: > 100 µM | TGI [24]: > 100 µM | TGI [25]: > 100 µM | TGI [48]: > 100 µM | TGI [26]: > 100 µM | TGI [27]: > 100 µM | TGI [49]: > 100 µM | TGI [50]: > 100 µM | TGI [51]: > 100 µM | TGI [28]: > 100 µM | TGI [29]: > 100 µM | TGI [30]: > 100 µM | TGI [32]: > 100 µM | TGI [52]: > 100 µM | TGI [33]: > 100 µM | TGI [34]: > 100 µM | TGI [53]: > 100 µM | TGI [35]: > 100 µM | TGI [36]: > 100 µM | TGI [54]: > 100 µM | TGI [37]: > 100 µM | TGI [57]: > 100 µM | TGI [38]: > 100 µM | TGI [56]: > 100 µM | TGI [39]: > 100 µM | TGI [40]: > 100 µM

Cc1ccccc1NC(=O)Cc1csc(N/N=C2\NC(=O)/C(=C/c3cccc([N+](=O)[O-])c3)S2)n1
TGI [1]: 64.8 µM | TGI [2]: > 100 µM | TGI [4]: 33.5 µM | TGI [5]: > 100 µM | TGI [6]: > 100 µM | TGI [7]: 92.5 µM | TGI [42]: 42.7 µM | TGI [8]: 28.9 µM | TGI [9]: 52.3 µM | TGI [10]: 34.3 µM | TGI [43]: 34 µM | TGI [11]: 44.5 µM | TGI [12]: > 100 µM | TGI [44]: 33.4 µM | TGI [13]: 29 µM | TGI [14]: 57.3 µM | TGI [15]: > 100 µM | TGI [18]: 32.8 µM | TGI [45]: > 100 µM | TGI [19]: 29.3 µM | TGI [20]: 55.1 µM | TGI [58]: 44.2 µM | TGI [21]: > 100 µM | TGI [23]: > 100 µM | TGI [24]: 25.8 µM | TGI [25]: 34 µM | TGI [48]: 27.3 µM | TGI [26]: 53.8 µM | TGI [27]: 31.3 µM | TGI [49]: 34.2 µM | TGI [51]: > 100 µM | TGI [29]: 55.3 µM | TGI [30]: 41.8 µM | TGI [31]: > 100 µM | TGI [32]: 74.6 µM | TGI [52]: 39.1 µM | TGI [33]: > 100 µM | TGI [34]: 39.5 µM | TGI [53]: > 100 µM | TGI [36]: 45.8 µM | TGI [54]: 39.5 µM | TGI [37]: 41.9 µM | TGI [57]: 71.1 µM | TGI [55]: 38.1 µM | TGI [56]: > 100 µM | TGI [39]: 35.7 µM | TGI [40]: 36.9 µM
